Measured values as given in patent US12258327B2, “5-membered heteroaryl-containing aminopyridine compounds as EGFR inhibitors” (YUHAN CORPORATION, priority 2021, dated 2025).
Where two headings read alike, the source gives them in different places.

Columns and labels:
EGFR L858R/C797S = EGFR L858R/C797S (Homo sapiens, UniProt P00533, C797S/L858R); assay: Biochemical EGFR kinase assay (Lance Ultra TR-FRET), double mutant L858R/C797S
How it was run: (§1)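 In this biochemical assay, phosphorylation after a one-hour room-temperature reaction was detected with europium-labelled anti-phosphopeptide antibody at 2 nM final concentration.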

EGFR del19/C797S = EGFR del19/C797S (Homo sapiens, UniProt P00533, C797S/DEL746-750); assay: Biochemical EGFR kinase assay (Lance Ultra TR-FRET), double mutant del19/C797S
How it was run: as §1

EGFR del19/T790M/C797S = EGFR del19/T790M/C797S (Homo sapiens, UniProt P00533, C797S/DEL746-750/T790M); assay: Biochemical EGFR kinase assay (Lance Ultra TR-FRET), triple mutant del19/T790M/C797S
How it was run: as §1

EGFR wildtype (WT) = EGFR wildtype (WT) (Homo sapiens, UniProt P00533); assay: Biochemical EGFR kinase assay (Lance Ultra TR-FRET), wildtype
How it was run: as §1

EGFR L858R/T790M/C797S = EGFR L858R/T790M/C797S (Homo sapiens, UniProt P00533, C797S/L858R/T790M); assay: Biochemical EGFR kinase assay (Lance Ultra TR-FRET), triple mutant L858R/T790M/C797S
How it was run: as §1

[1] = IC50 L858R/C797S (nM) 100 μM ATP, 100 μM ATP
[2] = IC50 del19/C797S (nM) 100 μM ATP, 100 μM ATP
[3] = IC50 del19/T790M/C797S (nM) 100 μM ATP, 100 μM ATP
[4] = IC50 WT (nM) 100 μM ATP, 100 μM ATP
[5] = IC50 L858R/T790M/C797S (nM) 100 μM ATP, 100 μM ATP
[6] = Km ATP, read-out: IC50 L858R/C797S (nM) Km ATP
[7] = Km ATP, read-out: IC50 del19/C797S (nM) Km ATP
[8] = Km ATP, read-out: IC50 del19/T790M/C797S (nM) Km ATP
[9] = Km ATP, read-out: IC50 WT (nM) Km ATP
[10] = Km ATP, read-out: IC50 L858R/T790M/C797S (nM) Km ATP
[11] = Km ATP, read-out: IC50 L858R/C797S, Km ATP
[12] = Km ATP, read-out: IC50 del19/C797S, Km ATP
[13] = Km ATP, read-out: IC50 del19/T790M/C797S, Km ATP
[14] = Km ATP, read-out: IC50 WT, Km ATP
[15] = Km ATP, read-out: IC50 L858R/T790M/C797S, Km ATP
[16] = IC50 del19/T790M/C797S, 100 μM ATP
[17] = IC50 L858R/T790M/C797S, 100 μM ATP

Chain of EGFR L858R/C797S (P00533 25-1210 C797S/L858R): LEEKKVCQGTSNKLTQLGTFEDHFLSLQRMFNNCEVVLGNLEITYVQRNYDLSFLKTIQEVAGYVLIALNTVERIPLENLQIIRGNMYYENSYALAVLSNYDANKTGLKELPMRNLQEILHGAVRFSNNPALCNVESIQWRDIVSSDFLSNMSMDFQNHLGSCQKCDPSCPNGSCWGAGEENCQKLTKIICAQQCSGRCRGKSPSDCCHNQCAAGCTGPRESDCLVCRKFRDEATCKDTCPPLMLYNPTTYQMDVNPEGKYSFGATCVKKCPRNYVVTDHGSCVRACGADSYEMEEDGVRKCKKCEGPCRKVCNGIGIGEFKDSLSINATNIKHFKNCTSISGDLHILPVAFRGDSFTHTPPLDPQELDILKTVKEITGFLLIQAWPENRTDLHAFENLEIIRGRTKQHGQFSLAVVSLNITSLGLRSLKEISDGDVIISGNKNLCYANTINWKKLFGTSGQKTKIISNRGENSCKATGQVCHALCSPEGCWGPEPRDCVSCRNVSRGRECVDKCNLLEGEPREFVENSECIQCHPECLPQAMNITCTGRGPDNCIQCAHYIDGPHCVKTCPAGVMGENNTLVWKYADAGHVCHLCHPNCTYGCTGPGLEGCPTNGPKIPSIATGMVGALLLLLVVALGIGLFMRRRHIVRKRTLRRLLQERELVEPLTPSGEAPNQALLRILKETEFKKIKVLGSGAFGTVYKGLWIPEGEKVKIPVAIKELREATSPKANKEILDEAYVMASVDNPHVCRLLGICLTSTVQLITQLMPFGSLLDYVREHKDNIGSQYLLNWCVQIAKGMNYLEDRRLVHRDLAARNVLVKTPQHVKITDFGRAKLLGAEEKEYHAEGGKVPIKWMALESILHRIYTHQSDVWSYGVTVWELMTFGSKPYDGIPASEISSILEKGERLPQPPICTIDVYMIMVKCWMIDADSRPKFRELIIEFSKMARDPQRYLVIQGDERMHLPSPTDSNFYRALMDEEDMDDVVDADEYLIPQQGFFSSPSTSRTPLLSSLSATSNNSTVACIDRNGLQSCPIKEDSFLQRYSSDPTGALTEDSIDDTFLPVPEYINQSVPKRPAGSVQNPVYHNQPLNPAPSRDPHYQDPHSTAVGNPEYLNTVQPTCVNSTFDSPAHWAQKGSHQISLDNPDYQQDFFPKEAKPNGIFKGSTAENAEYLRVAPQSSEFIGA
Chain of EGFR del19/C797S (P00533 with tags, fused parts or gaps DEL746-750/C797S): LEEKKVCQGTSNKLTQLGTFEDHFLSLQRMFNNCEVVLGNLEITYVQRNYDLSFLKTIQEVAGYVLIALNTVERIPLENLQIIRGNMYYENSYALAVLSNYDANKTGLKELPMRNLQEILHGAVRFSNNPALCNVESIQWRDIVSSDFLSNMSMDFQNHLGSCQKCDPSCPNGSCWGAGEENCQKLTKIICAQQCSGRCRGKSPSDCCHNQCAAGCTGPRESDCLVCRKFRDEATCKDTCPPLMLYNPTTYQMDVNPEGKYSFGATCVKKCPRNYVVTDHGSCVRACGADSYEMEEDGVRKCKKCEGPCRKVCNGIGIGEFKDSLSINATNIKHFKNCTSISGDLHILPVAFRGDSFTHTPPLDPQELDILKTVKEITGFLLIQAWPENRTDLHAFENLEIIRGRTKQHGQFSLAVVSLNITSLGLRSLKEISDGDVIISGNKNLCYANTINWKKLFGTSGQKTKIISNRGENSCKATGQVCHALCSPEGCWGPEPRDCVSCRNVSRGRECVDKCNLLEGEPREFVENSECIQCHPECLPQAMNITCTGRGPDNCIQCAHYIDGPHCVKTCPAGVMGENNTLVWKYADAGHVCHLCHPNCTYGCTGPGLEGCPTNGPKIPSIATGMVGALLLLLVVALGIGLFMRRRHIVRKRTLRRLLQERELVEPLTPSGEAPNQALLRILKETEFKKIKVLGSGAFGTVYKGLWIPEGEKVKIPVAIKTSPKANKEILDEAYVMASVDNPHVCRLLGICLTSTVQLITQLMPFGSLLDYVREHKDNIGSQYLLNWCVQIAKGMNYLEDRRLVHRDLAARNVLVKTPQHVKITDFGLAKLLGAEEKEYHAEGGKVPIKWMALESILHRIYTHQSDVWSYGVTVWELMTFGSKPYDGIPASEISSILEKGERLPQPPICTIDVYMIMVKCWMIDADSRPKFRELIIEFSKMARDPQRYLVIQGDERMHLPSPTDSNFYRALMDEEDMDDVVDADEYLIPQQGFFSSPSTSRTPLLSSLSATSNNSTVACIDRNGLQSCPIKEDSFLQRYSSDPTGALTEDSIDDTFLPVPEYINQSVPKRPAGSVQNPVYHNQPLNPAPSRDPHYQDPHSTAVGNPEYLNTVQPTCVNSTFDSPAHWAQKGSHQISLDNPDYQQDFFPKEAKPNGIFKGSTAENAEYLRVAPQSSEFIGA
Chain of EGFR wildtype (WT) (P00533 25-1210): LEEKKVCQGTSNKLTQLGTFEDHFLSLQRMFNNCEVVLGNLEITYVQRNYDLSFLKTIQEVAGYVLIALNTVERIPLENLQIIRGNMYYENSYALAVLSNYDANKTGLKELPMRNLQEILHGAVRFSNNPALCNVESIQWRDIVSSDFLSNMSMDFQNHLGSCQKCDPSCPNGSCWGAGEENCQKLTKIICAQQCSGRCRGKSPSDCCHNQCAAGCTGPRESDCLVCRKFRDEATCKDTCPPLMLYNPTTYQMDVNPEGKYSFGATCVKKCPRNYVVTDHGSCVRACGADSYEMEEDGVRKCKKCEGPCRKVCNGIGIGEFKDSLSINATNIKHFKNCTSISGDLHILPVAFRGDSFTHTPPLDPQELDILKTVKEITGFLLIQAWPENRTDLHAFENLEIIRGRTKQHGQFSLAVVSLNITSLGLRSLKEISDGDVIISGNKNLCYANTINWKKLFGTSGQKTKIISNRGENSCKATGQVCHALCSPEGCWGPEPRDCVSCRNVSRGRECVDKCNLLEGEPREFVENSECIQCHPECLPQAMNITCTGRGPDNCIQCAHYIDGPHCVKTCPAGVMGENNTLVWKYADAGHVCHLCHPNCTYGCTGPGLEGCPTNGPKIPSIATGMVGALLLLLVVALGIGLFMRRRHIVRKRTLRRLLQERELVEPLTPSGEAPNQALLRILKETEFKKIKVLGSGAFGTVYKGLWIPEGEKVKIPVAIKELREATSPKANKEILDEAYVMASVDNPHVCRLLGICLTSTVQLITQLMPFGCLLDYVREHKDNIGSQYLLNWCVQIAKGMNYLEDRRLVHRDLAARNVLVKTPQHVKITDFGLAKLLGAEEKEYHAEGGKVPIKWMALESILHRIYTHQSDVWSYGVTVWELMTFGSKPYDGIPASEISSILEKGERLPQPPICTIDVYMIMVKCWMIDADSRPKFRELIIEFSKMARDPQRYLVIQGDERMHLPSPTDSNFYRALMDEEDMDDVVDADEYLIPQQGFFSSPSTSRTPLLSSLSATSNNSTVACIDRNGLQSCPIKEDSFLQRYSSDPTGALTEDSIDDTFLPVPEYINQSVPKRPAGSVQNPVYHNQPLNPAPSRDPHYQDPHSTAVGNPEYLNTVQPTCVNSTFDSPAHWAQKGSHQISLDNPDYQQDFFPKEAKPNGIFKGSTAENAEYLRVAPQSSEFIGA
Chain of EGFR L858R/T790M/C797S (P00533 25-1210 T790M/C797S/L858R): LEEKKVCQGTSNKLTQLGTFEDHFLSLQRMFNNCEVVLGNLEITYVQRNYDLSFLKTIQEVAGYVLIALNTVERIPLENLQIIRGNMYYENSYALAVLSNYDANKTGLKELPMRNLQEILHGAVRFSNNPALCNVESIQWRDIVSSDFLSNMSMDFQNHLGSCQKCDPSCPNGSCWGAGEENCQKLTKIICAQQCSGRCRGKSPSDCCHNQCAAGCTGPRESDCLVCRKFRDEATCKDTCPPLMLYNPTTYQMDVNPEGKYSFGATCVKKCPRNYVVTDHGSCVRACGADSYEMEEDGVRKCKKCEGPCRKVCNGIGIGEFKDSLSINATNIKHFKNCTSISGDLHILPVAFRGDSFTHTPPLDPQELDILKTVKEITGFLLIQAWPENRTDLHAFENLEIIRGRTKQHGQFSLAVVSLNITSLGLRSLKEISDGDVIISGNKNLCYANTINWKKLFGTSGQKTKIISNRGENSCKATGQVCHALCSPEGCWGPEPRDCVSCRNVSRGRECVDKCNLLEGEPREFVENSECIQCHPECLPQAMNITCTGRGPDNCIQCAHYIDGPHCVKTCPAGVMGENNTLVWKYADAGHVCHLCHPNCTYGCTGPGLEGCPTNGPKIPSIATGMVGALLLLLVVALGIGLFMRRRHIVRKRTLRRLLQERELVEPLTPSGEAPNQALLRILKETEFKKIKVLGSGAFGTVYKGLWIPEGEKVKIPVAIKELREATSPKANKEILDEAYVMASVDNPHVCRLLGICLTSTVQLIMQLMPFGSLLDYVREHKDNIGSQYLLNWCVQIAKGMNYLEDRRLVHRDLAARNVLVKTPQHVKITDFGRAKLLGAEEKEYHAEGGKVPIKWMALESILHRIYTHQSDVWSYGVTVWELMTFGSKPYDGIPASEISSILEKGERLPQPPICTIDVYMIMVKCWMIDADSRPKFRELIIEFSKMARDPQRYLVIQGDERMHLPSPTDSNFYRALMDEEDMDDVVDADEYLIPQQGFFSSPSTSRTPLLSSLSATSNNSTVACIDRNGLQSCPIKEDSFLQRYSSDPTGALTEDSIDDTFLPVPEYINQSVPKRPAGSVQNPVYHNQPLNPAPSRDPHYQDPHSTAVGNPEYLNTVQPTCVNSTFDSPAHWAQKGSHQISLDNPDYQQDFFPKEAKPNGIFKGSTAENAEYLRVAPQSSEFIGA

Row | Structure (SMILES) | IC50 (EGFR L858R/C797S; [1]) [nM] | IC50 (EGFR del19/C797S; [2]) [nM] | IC50 (EGFR del19/T790M/C797S; [3]) [nM] | IC50 (EGFR wildtype (WT); [4]) [nM] | IC50 (EGFR L858R/T790M/C797S; [5]) [nM] | IC50 (EGFR L858R/C797S; [6]) [nM] | IC50 (EGFR del19/C797S; [7]) [nM] | IC50 (EGFR del19/T790M/C797S; [8]) [nM] | IC50 (EGFR wildtype (WT); [9]) [nM] | IC50 (EGFR L858R/T790M/C797S; [10]) [nM] | IC50 (EGFR L858R/C797S; [11]) [nM] | IC50 (EGFR del19/C797S; [12]) [nM] | IC50 (EGFR del19/T790M/C797S; [13]) [nM] | IC50 (EGFR wildtype (WT); [14]) [nM] | IC50 (EGFR L858R/T790M/C797S; [15]) [nM] | IC50 (EGFR L858R/C797S; IC50 L858R/C797S, 100 μM ATP) [nM] | IC50 (EGFR del19/C797S; IC50 del19/C797S, 100 μM ATP) [nM] | IC50 (EGFR del19/T790M/C797S; [16]) [nM] | IC50 (EGFR wildtype (WT); IC50 WT, 100 μM ATP) [nM] | IC50 (EGFR L858R/T790M/C797S; [17]) [nM]
1 | O=S(=O)(C1CC1)n1cc(-c2nccc(Nc3cc(N[C@@H]4CC[C@@H](O)C4)c(-c4ccn(C(F)F)n4)cn3)n2)cn1 [Example 12, (1R,3R)-3-((2-((2-(1-(Cyclopropylsulfonyl)-1H-pyrazol-4-yl)pyrimidin-4-yl)amino)-5-(1-(difluoromethyl)-1H-pyrazol-3-yl)pyridin-4-yl)amino)cyclopentan-1-ol] | 46.9 | 30 | 1.2 | > 10000 | 2.8 | – | – | – | – | – | – | – | – | – | – | – | – | – | – | –
2 | CN[C@H]1CC[C@@H](Oc2cc(Nc3ccnc(-c4cnn(S(=O)(=O)C5CC5)c4)n3)ncc2-c2cnn(C(F)F)c2)CC1 [Example 69, 2-(1-(Cyclopropylsulfonyl)-1H-pyrazol-4-yl)-N-(5-(1-(difluoromethyl)-1H-pyrazol-4-yl)-4-(((1s,4s)-4-(methylamino)cyclohexyl)oxy)pyridin-2-yl)pyrimidin-4-amine] | 257 | 18.7 | 0.5 | > 10000 | 1.9 | 14.7 | 11.2 | 0.3 | 114 | 0.2 | – | – | – | – | – | – | – | – | – | –
3 | Cc1cc(-c2cnc(Nc3ccnc(-c4cnn(S(=O)(=O)C5CC5)c4)n3)cc2N[C@H]2CC[C@@](C)(O)CC2)nn1C [Example 291, (1s,4s)-4-((2-((2-(1-(Cyclopropylsulfonyl)-1H-pyrazol-4-yl)pyrimidin-4-yl)amino)-5-(1,5-dimethyl-1H-pyrazol-3-yl)pyridin-4-yl)amino)-1-methylcyclohexan-1-ol] | – | 0.6 | 0.4 | 941 | 0.3 | 0.3 | 0.2 | 0.3 | 0.3 | 0.2 | – | – | – | – | – | – | – | – | – | –
4 | O=S(=O)(C1CC1)n1cc(-c2nccc(Nc3cc(N[C@H]4CC[C@@H](NCCF)CC4)c(-c4nc(C(F)F)cs4)cn3)n2)cn1 [Example 123, N^2-(2-(1-(Cyclopropylsulfonyl)-1H-pyrazol-4-yl)pyrimidin-4-yl)-5-(4-(difluoromethyl)thiazol-2-yl)-N^4-((1s,4s)-4-((2-fluoroethyl)amino)cyclohexyl)pyridine-2,4-diamine] | 22.5 | 1.3 | 0.2 | > 10000 | 0.2 | 1.9 | 1.4 | 0.3 | 21.6 | 0.1 | – | – | – | – | – | – | – | – | – | –
5 | O=S(=O)(C1CC1)n1cc(-c2nccc(Nc3cc(NC4CCC(F)(CO)CC4)c(-c4cc5n(n4)CCCC5)cn3)n2)cn1 (centres unmarked) [Example 276, (4-((2-((2-(1-(Cyclopropylsulfonyl)-1H-pyrazol-4-yl)pyrimidin-4-yl)amino)-5-(4,5,6,7-tetrahydropyrazolo[1,5-a]pyridin-2-yl)pyridin-4-yl)amino)-1-fluorocyclohexyl)methanol] | 121 | 1.4 | 1.1 | > 10000 | 0.9 | 1.9 | 1.2 | 0.8 | 14.9 | 0.4 | – | – | – | – | – | – | – | – | – | –
6 | C[C@]1(O)CC[C@@H](Nc2cc(Nc3ccnc(-c4cnn(CC(F)F)c4)n3)ncc2-c2ccn(CC(F)F)n2)CC1 [Example 343, (1s,4s)-4-((5-(1-(2,2-Difluoroethyl)-1H-pyrazol-3-yl)-2-((2-(1-(2,2-difluoroethyl)-1H-pyrazol-4-yl)pyrimidin-4-yl)amino)pyridin-4-yl)amino)-1-methylcyclohexan-1-ol] | – | – | – | – | – | – | – | – | – | – | 0.3 | 4.7 | 0.1 | 35.3 | 0.2 | – | – | – | – | –
7 | OC1CCN(Nc2cc(Nc3ccnc(-c4cnn(CC(F)F)c4)n3)ncc2-c2ccn(C(F)F)n2)CC1 [Example 162, 1-((2-((2-(1-(2,2-Difluoroethyl)-1H-pyrazol-4-yl)pyrimidin-4-yl)amino)-5-(1-(difluoromethyl)-1H-pyrazol-3-yl)pyridin-4-yl)amino)piperidin-4-ol] | – | – | – | – | – | 275 | 33.4 | 0.9 | 271 | 0.2 | – | – | – | – | – | – | – | – | – | –
8 | C[C@]1(O)CC[C@@H](Nc2cc(Nc3ccnc(-c4cnn(CCF)c4)n3)ncc2-c2ccn(C(F)F)n2)CC1 [Example 145, (1s,4s)-4-((5-(1-(Difluoromethyl)-1H-pyrazol-3-yl)-2-((2-(1-(2-fluoroethyl)-1H-pyrazol-4-yl)pyrimidin-4-yl)amino)pyridin-4-yl)amino)-1-methylcyclohexan-1-ol] | – | – | – | – | – | 7.2 | 23 | 0.6 | 199 | 0.5 | – | – | – | – | – | – | – | – | – | –
9 | O=S(=O)(C1CC1)n1cc(-c2nccc(Nc3cc(OC4CCC(O)C4)c(-c4cnn(C(F)F)c4)cn3)n2)cn1 (centres unmarked) [Example 72, 3-((2-((2-(1-(Cyclopropylsulfonyl)-1H-pyrazol-4-yl)pyrimidin-4-yl)amino)-5-(1-(difluoromethyl)-1H-pyrazol-4-yl)pyridin-4-yl)oxy)cyclopentan-1-ol] | 189 | 21.8 | 0.8 | > 10000 | 5.8 | 9.4 | 31.4 | 0.9 | 199 | 0.8 | – | – | – | – | – | – | – | – | – | –
10 | C[C@]1(O)CC[C@@H](Nc2cc(Nc3ccnc(-c4cnn(S(=O)(=O)C5CC5)c4)n3)ncc2-n2cccn2)CC1 [Example 376, (1s,4s)-4-((2-((2-(1-(Cyclopropylsulfonyl)-1H-pyrazol-4-yl)pyrimidin-4-yl)amino)-5-(1H-pyrazol-1-yl)pyridin-4-yl)amino)-1-methylcyclohexan-1-ol] | – | – | – | – | – | – | – | – | – | – | 11 | 6 | 0.2 | 144 | 0.1 | 126 | 8 | 0.4 | > 10000 | 0.9
11 | CC1(O)CCC(Nc2cc(Nc3ccnc(N4CC(CO)C(F)(F)C4)n3)ncc2-c2ccn(C(F)F)n2)CC1 (centres unmarked) [Example 346, (1s,4s)-4-((2-((2-(3,3-Difluoro-4-(hydroxymethyl)pyrrolidin-1-yl)pyrimidin-4-yl)amino)-5-(1-(difluoromethyl)-1H-pyrazol-3-yl)pyridin-4-yl)amino)-1-methylcyclohexan-1-ol] | – | – | – | – | – | – | – | – | – | – | – | – | – | 335 | – | 409 | 124 | 6.3 | > 10000 | 3.7
12 | CCC(C)Nc1cc(Nc2ccnc(-c3cnn(S(=O)(=O)C4CC4)c3)n2)ncc1-c1ccn(C(F)F)n1 (centres unmarked) [Example 210, N^4-(sec-Butyl)-N^2-(2-(1-(cyclopropylsulfonyl)-1H-pyrazol-4-yl)pyrimidin-4-yl)-5-(1-(difluoromethyl)-1H-pyrazol-3-yl)pyridine-2,4-diamine] | – | – | – | – | – | 6.5 | 70.5 | 1.7 | 90.5 | 1.3 | – | – | – | – | – | – | – | – | – | –
13 | C[C@]1(O)CC[C@@H](Nc2cc(Nc3ccnc(-c4cnn(S(=O)(=O)C5CC5)c4)n3)ncc2-c2ccn(CC(F)F)n2)CC1 [Example 241, (1s,4s)-4-((2-((2-(1-(Cyclopropylsulfonyl)-1H-pyrazol-4-yl)pyrimidin-4-yl)amino)-5-(1-(2,2-difluoroethyl)-1H-pyrazol-3-yl)pyridin-4-yl)amino)-1-methylcyclohexan-1-ol] | – | 0.5 | 0.6 | 2980 | 0.7 | 0.5 | 0.5 | 0.5 | 5 | 0.3 | – | – | – | – | – | – | – | – | – | –
14 | Cn1ccc(-c2cnc(Nc3ccnc(-c4cnn(S(=O)(=O)C5CC5)c4)n3)cc2NC2CCCC(NCC(F)F)C2)n1 (centres unmarked) [Example 224, N^2-(2-(1-(Cyclopropylsulfonyl)-1H-pyrazol-4-yl)pyrimidin-4-yl)-N^4-(3-((2,2-difluoroethyl)amino)cyclohexyl)-5-(1-methyl-1H-pyrazol-3-yl)pyridine-2,4-diamine] | 132 | 4.7 | 0.7 | > 10000 | 0.7 | 6.6 | 3.3 | 0.5 | 37.8 | 0.3 | – | – | – | – | – | – | – | – | – | –
15 | Cn1ccc(-c2cnc(Nc3ccnc(-c4cnn(S(=O)(=O)C5CC5)c4)n3)cc2NC[C@H]2CC[C@@H](O)C2)n1 [Example 118, (1R,3S)-3-(((2-((2-(1-(Cyclopropylsulfonyl)-1H-pyrazol-4-yl)pyrimidin-4-yl)amino)-5-(1-methyl-1H-pyrazol-3-yl)pyridin-4-yl)amino)methyl)cyclopentan-1-ol] | 3.6 | 0.2 | 0.2 | 1320 | 0.3 | 0.2 | 0.3 | 0.2 | 4.9 | 0.1 | – | – | – | – | – | – | – | – | – | –
